Compound: C1CN(CCC1C(C2=CC3=C(C=C2)OCO3)(C4=CC5=C(C=C4)OCO5)O)C(=O)OC6=CC=C(C=C6)[N+](=O)[O-] [JZL-184]
Experiment: relative viability (nuclei count vs DMSO), 5 days (fraction); higher = more cells survive
Procedure, shortened: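 Lung cancer cell lines in 1536-well plates were exposed by pinning to five library-drug doses (not always all listed) √10 apart, following an overnight hold at 37 °C. MetaXpress counted Hoechst-stained nuclei from 4× images taken after 5 days without medium change. Viability is the median ratio of treated-well to vehicle-well nuclei across plates. Plates required control CV below 25% and at least one doubling.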

Cell Line | relative viability (0.04 µM) | relative viability (0.4 µM) | relative viability (1.265 µM) | relative viability (4 µM)
201T | 0.997 | 0.992 | 1.01 | 0.953
A-427 | 1.09 | 0.982 | 1.12 | 0.948
ABC-1 | 0.868 | 0.901 | 1.09 | 1.15
BEN | 1.1 | 0.949 | 1.21 | 1.01
CAL-12T | 1.23 | 0.856 | 1.13 | 0.949
COR-L23 | 1.2 | 1.06 | 1.03 | 0.971
COR-L 105 | 1.13 | 0.876 | 1.1 | 0.812
ChaGo-K-1 | 1.12 | 0.934 | 1.03 | 0.957
EKVX | 1.02 | 0.979 | 1.04 | 0.927
EMC-BAC-2 | 1.05 | 0.944 | 1.12 | 0.922
EPLC-272H | 1 | 0.914 | 1.15 | 0.937
H3255 | 1.1 | 0.871 | 1.07 | 0.885
HARA | 0.995 | 0.814 | 1.05 | 0.831
HCC-15 | 1.07 | 1.03 | 1.08 | 0.978
HCC-44 | 1.05 | 0.923 | 1.06 | 0.983
HCC-78 | 0.793 | 0.806 | 1.13 | 1.01
HCC-366 | 1.09 | 0.958 | 1.06 | 1.02
HCC-827 | 1.02 | 0.989 | 1.02 | 1.04
HOP-62 | 1.08 | 1.01 | 1.04 | 1.01
IA-LM | 1.31 | 0.879 | 1.03 | 1
LC-2-ad | 1.18 | 0.96 | 1.13 | 0.982
LCLC-97TM1 | 1.13 | 0.852 | 1.05 | 0.84
LCLC-103H | 0.956 | 0.988 | 1.04 | 0.986
LK-2 | 1.13 | 0.928 | 1.21 | 0.944
LOU-NH91 | 1.02 | 0.879 | 0.984 | 0.945

Cell Line | relative viability (0.04 µM) | relative viability (0.4 µM) | relative viability (1.265 µM) | relative viability (4 µM)
LU99A | 1.01 | 0.774 | 1.18 | 0.968
LXF-289 | 1.08 | 0.926 | 1.02 | 0.959
NCI-H23 | 1.14 | 0.767 | 1.18 | 0.998
NCI-H322M | 0.951 | 0.926 | 0.982 | 0.774
NCI-H358 | 1 | 0.824 | 0.994 | 0.916
NCI-H441 | 1.14 | 0.814 | 1.02 | 0.998
NCI-H460 | 1.06 | 0.884 | 0.974 | 0.975
NCI-H520 | 0.793 | 0.924 | 1.07 | 0.93
NCI-H596 | 1.21 | 0.875 | 1.01 | 0.932
NCI-H647 | 1.04 | 0.945 | 1.06 | 0.887
NCI-H650 | 1.03 | 0.762 | 1.1 | 0.979
NCI-H661 | 1.02 | 0.919 | 0.943 | 0.999
NCI-H727 | 0.949 | 0.793 | 1.09 | 0.781
NCI-H838 | 1.11 | 1.03 | 1.04 | 0.984
NCI-H1355 | 0.984 | 0.927 | 1.06 | 0.946
NCI-H1395 | 0.862 | 0.84 | 1.03 | 0.816
NCI-H1437 | 1.04 | 0.948 | 1.02 | 0.961
NCI-H1563 | 0.943 | 1.05 | 1.02 | 0.934
NCI-H1650 | 1.07 | 0.895 | 1.16 | 0.915
NCI-H1651 | 1.08 | 0.907 | 1 | 0.967
NCI-H1666 | 1.01 | 1.01 | 0.967 | 1.04
NCI-H1703 | 1.2 | 0.997 | 0.996 | 0.768
NCI-H1734 | 1.12 | 0.865 | 1.03 | 0.963
NCI-H1755 | 1.04 | 0.988 | 0.985 | 0.956
NCI-H1792 | 1.03 | 0.836 | 0.883 | 1.18

Cell Line | relative viability (0.04 µM) | relative viability (0.4 µM) | relative viability (1.265 µM) | relative viability (4 µM)
NCI-H1793 | 0.771 | 0.735 | 1.1 | 0.845
NCI-H1915 | 1.09 | 0.956 | 1.1 | 0.976
NCI-H1944 | 0.954 | 0.921 | 1.03 | 1.01
NCI-H1975 | 0.996 | 0.938 | 1.01 | 0.915
NCI-H1993 | 0.943 | 0.982 | 1.08 | 0.916
NCI-H2009 | 1.12 | 0.942 | 1.02 | 1
NCI-H2023 | 1.15 | 0.921 | 1.01 | 0.944
NCI-H2085 | 0.719 | 0.989 | 1.07 | 0.98
NCI-H2087 | 1.15 | 0.99 | 1.04 | 1.11
NCI-H2126 | 0.996 | 0.974 | 1.03 | 0.988
NCI-H2170 | 1.1 | 0.948 | 1.02 | 0.928
NCI-H2228 | 1.16 | 0.945 | 1.04 | 0.918
NCI-H2342 | 0.851 | 0.878 | 1.03 | 1.02
NCI-H2347 | 0.865 | 0.996 | 1.06 | 0.989
NCI-H2405 | 1 | 0.982 | 1.11 | 1
NCI-H3122 | 1.01 | 0.955 | 1.01 | 0.98
PC-3 [JPC-3] | 1.04 | 0.978 | 1.1 | 1.01
PC-14 | 1.24 | 0.974 | 1.07 | 0.936
RERF-LC-KJ | 1.05 | 0.981 | 1.02 | 0.988
SK-LU-1 | 1.11 | 0.982 | 1.15 | 1.02
SK-MES-1 | 1.1 | 0.982 | 1.07 | 0.939
SW 900 | 1.08 | 0.698 | 0.958 | 0.882
SW 1573 | 1.15 | 0.926 | 1.08 | 1.02
UMC-11 | 1.12 | 0.951 | 1.08 | 0.976

Reference: the supplement of paper PMC10307832
